As usually defined, the GI50 is the concentration that inhibits growth by half.

The values below come from ChEMBL document CHEMBL1201862, “PubChem BioAssay data set” (2004).

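Tested at 5 concentrations; 48 h exposure; 96-well plates; endpoints linearly interpolated, else capped at highest concentration. GI50 is the concentration that inhibits growth by half.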 The source made the active and inactive calls. Cut-off read from the data, not from the text of the source: active = GI50 up to about 1.1 µM and inactive = higher. Some results are limits rather than exact numbers.

Test systems include ACHN; CCRF-CEM; COLO 205; EKVX; HOP-62; IGROV-1; KM12; LOX IMVI; MCF7; MDA-MB-231; MOLT-4; Malme-3M; OVCAR-3; OVCAR-4; PC-3; SK-MEL-5; SW-620; TK-10; HCC 2998; A498.
What all share (experiment): DTP human tumour cell line panel, 48 h

In the case of `N=c1oc2cc(O)ccc2cc1C(=O)NCc1ccccc1`, the GI50 in the test with ACHN is 14.5 µM (inactive); in the test with CCRF-CEM, 9.42 µM (inactive); in the test on COLO 205 it was 12.4 µM (inactive); in the test with EKVX, 32.8 µM (inactive); with HOP-62 it was 31.1 µM (inactive); in the test on IGROV-1 it was 21.3 µM (inactive). The GI50 with KM12 is 32.3 µM (inactive); in the test on LOX IMVI, 29.5 µM (inactive); with MCF7, 33.2 µM (inactive); in the test on MDA-MB-231, 24 µM (inactive); with MOLT-4 it was 15.7 µM (inactive); with Malme-3M, 21.7 µM (inactive). Also, the GI50 was 22.6 µM (inactive) in the test with OVCAR-3; 31.6 µM (inactive) in the test on OVCAR-4; 28.4 µM (inactive) with PC-3; 12.9 µM (inactive) in the test on SK-MEL-5; 22.6 µM (inactive) in the test with SW-620; 32.1 µM (inactive) in the test on TK-10.

`COc1cccc(C2CC(=O)c3cc(N4CCCC4)ccc3N2)c1` (centres undefined): the concentration for 50% growth inhibition (GI50) in the test with ACHN is 0.0832 µM (active); in the test on CCRF-CEM it was 0.0407 µM (active); with COLO 205, 0.0365 µM (active); in the test with EKVX it was 0.27 µM (active); in the test on HCC 2998, 0.0475 µM (active); in the test on HOP-62 it was 1.75 µM (inactive). Besides, the GI50 in the test on IGROV-1 is 0.045 µM (active); with KM12, 0.0861 µM (active); with LOX IMVI, 0.0516 µM (active); with MCF7, 0.398 µM (active); in the test on MDA-MB-231 it was 0.0766 µM (active); with MOLT-4, 0.0338 µM (active). For the same molecule, the GI50 was 0.0344 µM (active) in the test with OVCAR-3; 23.3 µM (inactive) with OVCAR-4; 0.022 µM (active) with PC-3; 0.0252 µM (active) with SK-MEL-5; 0.0243 µM (active) with SW-620; 1.21 µM (inactive) in the test on TK-10.

For the molecule `O=c1cc(-c2ccccc2)[nH]c2cc(F)c(F)cc12`, the GI50 in the test on ACHN was 0.676 µM (active); in the test with CCRF-CEM, 0.379 µM (active); in the test on COLO 205 it was 0.661 µM (active); in the test with EKVX, 11.5 µM (inactive); in the test on HCC 2998 it was 5.11 µM (inactive); in the test with HOP-62 it was 1.33 µM (inactive). Also, the GI50 in the test on IGROV-1 was 0.634 µM (active); with KM12 it was 0.326 µM (active); in the test with LOX IMVI it was 0.494 µM (active); with MCF7, 0.323 µM (active); in the test with MDA-MB-231 it was 1.44 µM (inactive); in the test on MOLT-4 it was 0.438 µM (active). For the same molecule, the GI50 with Malme-3M is > 69.5 µM (inactive); with OVCAR-3, 0.34 µM (active); in the test on OVCAR-4 it was > 51.4 µM (inactive); in the test on PC-3, 0.222 µM (active); in the test on SK-MEL-5 it was 0.197 µM (active); in the test on SW-620, 0.355 µM (active). Further, in the test with TK-10, the GI50 was 3.83 µM (inactive).

For `CC(C)(C)OC(=O)[N+](=N)C(=O)C1CCC(=O)N1C(=O)OCc1ccccc1` (centres undefined), the GI50 in the test with ACHN, in the test with CCRF-CEM, with COLO 205, in the test on EKVX, with HCC 2998 and in the test on HOP-62 was > 100 µM (inactive) throughout. Further, the GI50 in the test on IGROV-1, in the test with KM12, in the test on LOX IMVI, with MCF7, in the test with MDA-MB-231 and in the test with MOLT-4 was > 100 µM (inactive) throughout. Moreover, the GI50 with Malme-3M, with OVCAR-3, in the test on OVCAR-4, with PC-3, in the test on SK-MEL-5 and in the test on SW-620 was > 100 µM (inactive) in each case. In the test with TK-10, the GI50 is > 100 µM (inactive).

With `Cc1cccc(Nc2nc(NNC(=O)Cc3ccccc3)nc(NNC(=O)c3ccncc3)n2)c1`, the GI50 in the test with ACHN, with CCRF-CEM, with COLO 205, in the test with EKVX, with HCC 2998 and with HOP-62 was > 10 µM (inactive) throughout. The GI50 in the test with IGROV-1, in the test on KM12, in the test on LOX IMVI, in the test with MCF7, with MDA-MB-231 and in the test on MOLT-4 was > 10 µM (inactive) each time. Moreover, the GI50 with Malme-3M, with OVCAR-4, in the test on PC-3, with SK-MEL-5, with SW-620 and in the test on TK-10 was > 10 µM (inactive) each time.

Take `Cc1nc2ccc(Br)cc2c(=O)n1-c1nnc(C(C)(C)C)s1`: the GI50 with ACHN, with CCRF-CEM, with COLO 205, in the test with EKVX, in the test on HCC 2998 and in the test with HOP-62 was > 10 µM (inactive) in each case. The GI50 with IGROV-1, in the test on KM12, with LOX IMVI, in the test with MCF7, in the test on MDA-MB-231 and in the test on MOLT-4 was > 10 µM (inactive) each time. Further, the GI50 in the test with OVCAR-3, with OVCAR-4, in the test on PC-3, in the test with SK-MEL-5, in the test with SW-620 and with TK-10 was > 10 µM (inactive) throughout.

As to `COC(=O)C1(CCCCl)CCCN1C(=O)OC(C)(C)C` (centres undefined), the GI50 in the test with ACHN was > 100 µM (inactive); in the test with CCRF-CEM, 37.5 µM (inactive); in the test on COLO 205, > 100 µM (inactive); in the test on EKVX it was > 100 µM (inactive); with HCC 2998, > 100 µM (inactive); with HOP-62, > 100 µM (inactive). The GI50 with IGROV-1, in the test with KM12, with LOX IMVI, in the test on MCF7, in the test with MDA-MB-231 and in the test with OVCAR-3 was > 100 µM (inactive) throughout. Also, the GI50 in the test with OVCAR-4, with PC-3, in the test with SK-MEL-5, in the test with SW-620 and in the test with TK-10 was > 100 µM (inactive) in each case.

With `CC(CCc1nc2ccccc2s1)(c1ccc(O)cc1)c1ccc(O)cc1`, the GI50 in the test on A498 was 20.7 µM (inactive); with ACHN, 18.3 µM (inactive); in the test on EKVX, 16.8 µM (inactive); in the test on HCC 2998, 19.7 µM (inactive); in the test with HOP-62, 17.7 µM (inactive); in the test on IGROV-1, 14.2 µM (inactive). Also, the GI50 in the test on KM12 is 15.4 µM (inactive); in the test on LOX IMVI, 16 µM (inactive); in the test with MDA-MB-231 it was 17.9 µM (inactive); in the test on MOLT-4, 12.7 µM (inactive); with Malme-3M it was 16.5 µM (inactive); with OVCAR-3 it was 17.5 µM (inactive). Also, the GI50 with OVCAR-4 was 19.1 µM (inactive); in the test with PC-3 it was 14.8 µM (inactive); with SK-MEL-5 it was 18.4 µM (inactive); with SW-620, 19.8 µM (inactive); in the test on TK-10 it was 19.9 µM (inactive).
